The source of these data is patent publication US20160332971A1, “ARYLQUINOLINE, ARYLQUINOLONE AND ARYLTHIOQUINOLONE DERIVATIVES AND USE THEREOF TO TREAT CANCER” (UNIVERSITY OF KENTUCKY RESEARCH FOUNDATION, priority 2015, published 2016).

Data set [1] concerns Par-4 secretion from mouse fibroblasts. The data set can be described thus: Par-4 secretion into conditioned medium, quantitative Western blot normalised to CollA1. It counts as cell-based. The conditions noted are these: for Relative Levels of Par-4 Secretion by Arylquins Administered at 500 nM / fold induction at 0.5 µM: 24 h; for Relative Levels of Par-4 Secretion by Arylquins Administered at 500 nM: mouse fibroblasts, CM; for Par-4 secretory activity (in words): SAR discussion; for fold induction at 0.5 µM: Mus musculus, Fibroblast, read-out: Ratio of Par-4 Secretion by Arylquin 1 Relative to Vehicle. The procedure:
Calibration curve developed using fixed amounts (0.05-5 ng) of recombinant TRX-Par-4. […] Therefore the concentration was 0.82 ng/40 μL or 540 pM, In the same fashion, calculation for Par-4 concentration using vehicle (v) was 280 pM.
Biological activity of 3-Arylquinolines. […] After 24 h exposure, the CM and lysates were subjected to quantitative Western blot analysis for Par-4 and collagen (CollA1).
Co-immunoprecipitation and Western blot analysis. Protein extracted from cell lysates was filtered, pre-cleared with 25 μL (bed volume) of protein G-Sepharose beads and immunoprecipitated with 1 μg of respective antibodies. The eluted proteins were resolved by SDS-PAGE, and subjected to Western blot analysis as described previously. Bensch, et al. Nature 1968, 218(5147):1176-1177.
Statistical analyses. All experiments were performed in triplicate to verify the reproducibility of the findings. […] Statistical analyses were carried out with Statistical Analysis System software (SAS Institute, Cary, N.C.) and P values were calculated using the Student t test.
For orientation: Immunoblotting shows a protein as a band on a membrane.

Like-named read-outs stand apart in the source and are kept apart here.

As usually defined, the melting point is the temperature, or range, at which the solid turns liquid.

For the molecule “3-(2,3-Difluorophenyl)-N^7,N^7-dimethylquinoline-2,7-diamine [Arylquin 1i]”, the “Relative Levels of Par-4 Secretion by Arylquins Administered at 500 nM” value (“Relative Levels of Par-4 Secretion” below) in data set [1] (Table 1) is recorded as 88.4 ± 1.3. Further, the “Par-4 secretory activity (in words)” value in data set [1] (500 nM) is “comparable to 1a, 1b and 1h”.

With “3-(2,5-Difluorophenyl)-N^7,N^7-dimethylquinoline-2,7-diamine [Arylquin 1l]”, in data set [1] (Table 1), the “Relative Levels of Par-4 Secretion” value turned out to be 64.9 ± 13.1.

On to `CN(C)c1ccc2cc(-c3ccccc3F)c(N)nc2c1` [Arylquin 1a], for which the “increase in Par-4 concentrations in the CM from basal levels” value in data set [1] (500 nM, vs vehicle alone) was “two-fold increase”. For the same molecule, the “Par-4 concentration in the CM” value in data set [1] (500 nM, calibration with recombinant TRX-Par-4 (FIG. 3), vehicle 280 pM) was determined as 540 pM. Moreover, the “Par-4 secretory activity (in words)” value in data set [1] (500 nM) is given as “superior in potency”.

With `CN(C)c1ccc2cc(-c3ccccc3Cl)c(N)nc2c1` [Arylquin 1b, 3-(2-Chlorophenyl)-N^7,N^7-dimethylquinoline-2,7-diamine], the melting point was in the range of 147 to 148 °C. The “Par-4 secretory activity (in words)” value in data set [1] (500 nM) is on record as “comparable in activity”.

Regarding `CN(C)c1ccc2cc(-c3ccccc3Br)c(N)nc2c1` [Arylquin 1c, 3-(2-Bromophenyl)-N^7,N^7-dimethylquinoline-2,7-diamine], the melting point was in the range of 159 to 160 °C. Besides, in data set [1] (Table 1), the “Relative Levels of Par-4 Secretion” value was 33.6 ± 14.8. In data set [1] (500 nM), the “Par-4 secretory activity (in words)” value is given as “diminished activity”.

Take `CN(C)c1ccc2cc(-c3cccc(Cl)c3)c(N)nc2c1` [Arylquin 1e, 3-(3-Chlorophenyl)-N^7,N^7-dimethylquinoline-2,7-diamine]: the melting point was in the range of 144 to 145 °C. Also, in data set [1] (Table 1), the “Relative Levels of Par-4 Secretion” value was 78.3 ± 15.3. Also, in data set [1] (500 nM, Table 1), the fold induction at 0.5 µM was 2.6. Moreover, in data set [1] (500 nM), the “Par-4 secretory activity (in words)” value is on record as “no improvement”.

`CN(C)c1ccc2cc(-c3ccc(Cl)cc3)c(N)nc2c1` [Arylquin 1g, 3-(4-Chlorophenyl)-N^7,N^7-dimethylquinoline-2,7-diamine] registered a melting point of 169 to 170 °C. Further, the “Par-4 secretory activity (in words)” value in data set [1] (500 nM) is reported as “no improvement”.

Consider `CN(C)c1ccc2cc(-c3cccc(F)c3F)c(N)nc2c1` [Arylquin 1h, 3-(2,3-Difluorophenyl)-N^7,N^7-dimethylquinoline-2,7-diamine], for which the “Relative Levels of Par-4 Secretion” value in data set [1] (Table 1) was 93.2 ± 10.6. Also, the fold induction at 0.5 µM in data set [1] (500 nM, Table 1) turned out to be 3.1. In addition, the “Par-4 secretory activity (in words)” value in data set [1] (500 nM) is reported as “equipotent to the original arylquinoline 1a”.

Molecule `CN(C)c1ccc2cc(-c3ccc(F)cc3F)c(N)nc2c1` [Arylquin 1j, 3-(2,4-Difluorophenyl)-N^7,N^7-dimethylquinoline-2,7-diamine] displayed a melting point of 174 to 175 °C. Also, the “Relative Levels of Par-4 Secretion” value in data set [1] (Table 1) is 80.8 ± 3.0. For the same molecule, in data set [1] (500 nM, Table 1), the fold induction at 0.5 µM came out at 2.7. Besides, the “Par-4 secretory activity (in words)” value in data set [1] (500 nM) was “equipotent to the original arylquinoline 1a”.

On to `CN(C)c1ccc2cc(-c3cc(F)ccc3F)c(N)nc2c1` [Arylquin 1k, 3-(2,5-Difluorophenyl)-N^7,N^7-dimethylquinoline-2,7-diamine], for which, in data set [1] (Table 1), the “Relative Levels of Par-4 Secretion” value amounted to 86.2 ± 7.5. Also, the fold induction at 0.5 µM in data set [1] (500 nM, Table 1) came to 2.9. Further, the “Par-4 secretory activity (in words)” value in data set [1] (500 nM) is given as “equipotent to the original arylquinoline 1a”.

In the case of `CN(C)c1ccc2cc(-c3c(F)cccc3F)c(N)nc2c1` [Arylquin 1m, 3-(2,6-Difluorophenyl)-N^7,N^7-dimethylquinoline-2,7-diamine], the melting point was in the range of 148 to 150 °C. For the same molecule, the “Relative Levels of Par-4 Secretion” value in data set [1] (Table 1) is recorded as 44.6 ± 4.6. In data set [1] (500 nM, Table 1), the fold induction at 0.5 µM is 1.5. In data set [1] (500 nM), the “Par-4 secretory activity (in words)” value is reported as “did not lead to improved activity”.

Molecule `CN(C)c1ccc2cc(-c3ccc(F)c(F)c3)c(N)nc2c1` [Arylquin 1n, 3-(3,4-Difluorophenyl)-N^7,N^7-dimethylquinoline-2,7-diamine] registered a melting point of 163 to 164 °C. Also, in data set [1] (Table 1), the “Relative Levels of Par-4 Secretion” value is given as 58.4 ± 14.1. In addition, the fold induction at 0.5 µM in data set [1] (500 nM, Table 1) amounted to 2. The “Par-4 secretory activity (in words)” value in data set [1] (500 nM) is “diminished activity relative to 1a”.

On to `CN(C)c1ccc2cc(-c3cc(F)cc(F)c3)c(N)nc2c1` [Arylquin 1o, 3-(3,5-Difluorophenyl)-N^7,N^7-dimethylquinoline-2,7-diamine], for which the melting point was in the range of 160 to 162 °C. Moreover, in data set [1] (Table 1), the “Relative Levels of Par-4 Secretion” value is on record as 47.4 ± 16.8. Further, the “Par-4 secretory activity (in words)” value in data set [1] (500 nM) is on record as “diminished activity relative to 1a”.

With `CN(C)c1ccc2cc3c(nc(N)c4ccccc43)nc2c1` [Arylquin 6, N^9,N^9-Dimethyldibenzo[b,f][1,8]naphthyridine-5,9-diamine], the melting point is greater than 250 °C. In addition, the “Par-4 secretory activity (in words)” value in data set [1] (500 nM) is “biologically inactive”.

Turning to `CN(C)c1ccc2cc3c(nc2c1)[nH]c(=O)c1ccccc13` [Arylquin 7, 9-(Dimethylamino)dibenzo[b,f][1,8]naphthyridin-5(6H)-one], the melting point is greater than 250 °C. For the same molecule, the “Par-4 secretory activity (in words)” value in data set [1] (500 nM) was “biologically inactive”.

For the molecule `CCOC(=O)c1cn2c(n1)c(-c1ccccc1F)cc1ccc(N(C)C)cc12` [Arylquin 8b], in data set [1] (500 nM), the “Par-4 secretory activity (in words)” value was “little Par-4 secretory activity”.

For the molecule `CN(C)c1ccc2cc(-c3ccccc3F)c(=O)[nH]c2c1` [Arylquin 9], the “Ratio of Par-4 Secretion by Arylquin 1 Relative to Vehicle” value in data set [1] (500 nM, Table 2) is given as 1.1. In addition, in data set [1] (Table 2), the “Relative Levels of Par-4 Secretion” value is recorded as 33.2 ± 0.9. The “Par-4 secretory activity (in words)” value in data set [1] (500 nM) is recorded as “diminished Par-4 secretory activity relative to arylquinoline 1a”.

As for `CSc1nc2cc(N(C)C)ccc2cc1-c1ccccc1F` [Arylquin 11, 3-(2-Fluorophenyl)-N,N-dimethyl-2-(methylthio)quinolin-7-amine], in data set [1] (Table 2), the “Relative Levels of Par-4 Secretion” value is 75.4 ± 7.0. Also, in data set [1] (500 nM, Table 2), the fold induction at 0.5 µM was found to be 2.5. In data set [1] (500 nM), the “Par-4 secretory activity (in words)” value is listed as “diminished activity to varying degrees”.

On to `CN(C)c1ccc2cc(-c3ccccc3F)c(Cl)nc2c1` [Arylquin 12, 2-Chloro-3-(2-fluorophenyl)-N,N-dimethylquinolin-7-amine], for which the “Relative Levels of Par-4 Secretion” value in data set [1] (Table 2) is 104.5 ± 26.9. Also, the fold induction at 0.5 µM in data set [1] (500 nM, Table 2) was 3.5. Besides, the “Par-4 secretory activity (in words)” value in data set [1] (500 nM) is “activity comparable to but not exceeding that of arylquinoline 1a”.

For the molecule `CN1CCN(c2nc3cc(N(C)C)ccc3cc2-c2ccccc2F)CC1` [Arylquin 13b, 3-(2-Fluorophenyl)-N,N-dimethyl-2-(4-methylpiperazin-1-yl)quinolin-7-amine], in data set [1] (Table 2), the “Relative Levels of Par-4 Secretion” value is 65.6 ± 3.6. Moreover, the fold induction at 0.5 µM in data set [1] (500 nM, Table 2) was determined as 2.2. Further, the “Par-4 secretory activity (in words)” value in data set [1] (500 nM) is “diminished activity to varying degrees”.

The molecule `Nc1nc2cccc(F)c2cc1-c1ccccc1F` [Arylquin 15b, 5-Fluoro-3-(2-fluorophenyl)quinolin-2-amine] came in with a melting point of 142 to 143 °C. The “Relative Levels of Par-4 Secretion” value in data set [1] (Table 2) is listed as 83.4. The fold induction at 0.5 µM in data set [1] (500 nM, Table 2) amounted to 2.8. Also, in data set [1] (500 nM), the “Par-4 secretory activity (in words)” value was “equipotent to 15a”.

Regarding `Nc1nc2cccc(Cl)c2cc1-c1ccccc1F` [Arylquin 15c, 5-Chloro-3-(2-fluorophenyl)quinolin-2-amine], the melting point lay within 194 to 196 °C. Also, the “Relative Levels of Par-4 Secretion” value in data set [1] (Table 2) was found to be 63.2 ± 20.5. Also, the fold induction at 0.5 µM in data set [1] (500 nM, Table 2) came to 2.1. In data set [1] (500 nM), the “Par-4 secretory activity (in words)” value is reported as “lower Par-4 secretory activity”.

With `Nc1nc2cccc(Br)c2cc1-c1ccccc1F` [Arylquin 15d, 5-Bromo-3-(2-fluorophenyl)quinolin-2-amine], the melting point was 209 to 210 °C. The “Relative Levels of Par-4 Secretion” value in data set [1] (Table 2) was found to be 44.6. The fold induction at 0.5 µM in data set [1] (500 nM, Table 2) came to 1.5. Moreover, the “Par-4 secretory activity (in words)” value in data set [1] (500 nM) was “lower Par-4 secretory activity”.

The molecule `Nc1nc2ccc(Cl)cc2cc1-c1ccccc1F` [Arylquin 15e, 6-Chloro-3-(2-fluorophenyl)quinolin-2-amine] registered a melting point of 138 to 139 °C. The “Relative Levels of Par-4 Secretion” value in data set [1] (Table 2) is 81.9 ± 11.2. Besides, in data set [1] (500 nM, Table 2), the fold induction at 0.5 µM was determined as 2.8. Further, in data set [1] (500 nM), the “Par-4 secretory activity (in words)” value was “equipotent to 15a”.

For the molecule `Nc1nc2cc(Cl)ccc2cc1-c1ccccc1F` [Arylquin 15f, 7-Chloro-3-(2-fluorophenyl)quinolin-2-amine], the melting point was 178 to 180 °C. For the same molecule, in data set [1] (Table 2), the “Relative Levels of Par-4 Secretion” value is given as less than 50. The “Par-4 secretory activity (in words)” value in data set [1] (500 nM) was “reduced activity”.

`COc1ccc2cc(-c3ccccc3F)c(N)nc2c1` [Arylquin 15g, 3-(2-Fluorophenyl)-7-methoxyquinolin-2-amine] yielded a melting point of 114 to 116 °C. Also, the “Relative Levels of Par-4 Secretion” value in data set [1] (Table 2) was less than 50. Moreover, in data set [1] (500 nM), the “Par-4 secretory activity (in words)” value was “reduced activity”.

Consider `Nc1nc2cc(C(=O)O)ccc2cc1-c1ccccc1F` [Arylquin 15h, 2-Amino-3-(2-fluorophenyl)quinoline-7-carboxylic add], for which the “Relative Levels of Par-4 Secretion” value in data set [1] (Table 2) is less than 50. For the same molecule, in data set [1] (500 nM), the “Par-4 secretory activity (in words)” value is given as “reduced activity”.
